≈ marks a conversion by molar mass, not a printed value. Where two headings read alike, the source gives them in different places. Peptide text beside a SMILES is read from it.
Assays:
Botrytis cinerea = test: Antifungal 96-well plate assay with resazurin cell viability readout; assay type: cell-based; conditions: chemically synthesized peptides; 2-fold dilution series; 48 h incubation, then resazurin overnight; lowest concentration with no change in blue color
Description: Antifungal activity of NCR13_AlaV1-V5 was assessed at different concentrations using a 2-fold dilution series of each peptide. Antifungal activity of each peptide was determined spectrophotometrically using the 96-well plate assay. Around 45 μL of each peptide at different concentrations was added to each well of the microtiter plate containing 45 μL of ˜[…] spore suspension. The quantitative fungal growth inhibition was determined by measuring the absorbance at 595 nm using a (Tecan Infinite M200 ProTecan Systems Inc., San Jose, CA) microplate reader after 48 h. The fungal cell viability was determined by the resazurin cell viability assay. After incubation of the pathogen/peptide mixture for 48 h, 10 μl of 0.1% resazurin solution was added to each well. After incubation of the mixture overnight, a change in the color of the resazurin dye from blue to pink or colorless indicated the presence of live fungal cells. The MIC for each peptide was the lowest concentration of each peptide at which no change in blue color occurred.

[1] = test system: Tricophyton metagrophytes (26103); test: In vitro antifungal activity (spectrophotometric) against human fungal pathogens; conditions: Pichia pastoris-expressed peptide, half-strength potato dextrose broth
Description: (§1) The in vitro antifungal activity of these peptides was determined spectrophotometrically as described in previous publications (Sagaram et al. 2013: Islam et al. 2017) in half-strength potato dextrose broth.

Candida auris (38883) = test: as above; conditions: Pichia pastoris-expressed peptide, half-strength potato dextrose broth
Description: as §1

Candida albicans (33795) = test: as above; conditions: Pichia pastoris-expressed peptide, half-strength potato dextrose broth
Description: as §1

Candida glabrata (38827) = test: as above; conditions: Pichia pastoris-expressed peptide, half-strength potato dextrose broth
Description: as §1

[2] = test system: Tricophyton rubrum (36381); test: as above; conditions: Pichia pastoris-expressed peptide, half-strength potato dextrose broth
Description: as §1

TKPCQSDKDCAAAACRKPKVPKCINGFCKCVR (SEQ ID NO: 42) [NCR13_AlaV2, Alanine scanning variant of NCR13]
MIC (μM) Fusarium graminearum (Fusarium graminearum): Inactive | MIC (μM) Botrytis cinerea (Botrytis cinerea): Inactive

CC[C@H](C)[C@H](NC(=O)[C@H](CS)NC(=O)[C@H](CCCCN)NC(=O)[C@@H]1CCCN1C(=O)[C@@H](NC(=O)[C@H](CCCCN)NC(=O)[C@@H]1CCCN1C(=O)[C@H](CCCCN)NC(=O)[C@H](CCCNC(=N)N)NC(=O)[C@H](CS)NC(=O)[C@H](C)NC(=O)[C@H](Cc1ccccc1)NC(=O)[C@H](CCCCN)NC(=O)[C@H](CCCCN)NC(=O)[C@H](CS)NC(=O)[C@H](C)NC(=O)[C@H](C)NC(=O)[C@H](C)NC(=O)[C@H](C)NC(=O)[C@H](C)NC(=O)[C@H](CS)NC(=O)[C@@H]1CCCN1C(=O)[C@H](CCCCN)NC(=O)[C@@H](N)[C@@H](C)O)C(C)C)C(=O)N[C@@H](CC(N)=O)C(=O)NCC(=O)N[C@@H](Cc1ccccc1)C(=O)N[C@@H](CS)C(=O)N[C@@H](CCCCN)C(=O)N[C@@H](CS)C(=O)N[C@H](C(=O)N[C@@H](CCCNC(=N)N)C(=O)O)C(C)C [NCR13_AlaV1] (H-TKPCAAAAACKKFACRKPKVPKCINGFCKCVR-OH; N-terminus and C-terminus assumed)
MIC (μM) Fusarium graminearum (Fusarium graminearum; 48 h): 6 µM (≈ 20.7 µg/mL)

CC(C)[C@H](NC(=O)[C@H](CS)NC(=O)[C@H](CCCCN)NC(=O)[C@H](CS)NC(=O)[C@H](C)NC(=O)[C@H](C)NC(=O)[C@H](C)NC(=O)[C@H](C)NC(=O)[C@H](CS)NC(=O)[C@H](CCCCN)NC(=O)[C@@H]1CCCN1C(=O)[C@@H](NC(=O)[C@H](CCCCN)NC(=O)[C@@H]1CCCN1C(=O)[C@H](CCCCN)NC(=O)[C@H](CCCNC(=N)N)NC(=O)[C@H](CS)NC(=O)[C@H](C)NC(=O)[C@H](Cc1ccccc1)NC(=O)[C@H](CCCCN)NC(=O)[C@H](CCCCN)NC(=O)[C@H](CS)NC(=O)[C@H](CC(=O)O)NC(=O)[C@H](CCCCN)NC(=O)[C@H](CC(=O)O)NC(=O)[C@H](CO)NC(=O)[C@H](CCC(N)=O)NC(=O)[C@H](CS)NC(=O)[C@@H]1CCCN1C(=O)[C@H](CCCCN)NC(=O)[C@@H](N)[C@@H](C)O)C(C)C)C(=O)N[C@@H](CCCNC(=N)N)C(=O)O [NCR13_AlaV5] (H-TKPCQSDKDCKKFACRKPKVPKCAAAACKCVR-OH; N-terminus and C-terminus assumed)
MIC (μM) Fusarium graminearum (Fusarium graminearum; 48 h): 6 µM (≈ 21.1 µg/mL)

CC[C@H](C)[C@H](NC(=O)[C@H](CS)NC(=O)[C@H](C)NC(=O)[C@H](C)NC(=O)[C@H](C)NC(=O)[C@H](CCCCN)NC(=O)[C@@H]1CCCN1C(=O)[C@H](CCCCN)NC(=O)[C@H](CCCNC(=N)N)NC(=O)[C@H](CS)NC(=O)[C@H](C)NC(=O)[C@H](Cc1ccccc1)NC(=O)[C@H](CCCCN)NC(=O)[C@H](CCCCN)NC(=O)[C@H](CS)NC(=O)[C@H](CC(=O)O)NC(=O)[C@H](CCCCN)NC(=O)[C@H](CC(=O)O)NC(=O)[C@H](CO)NC(=O)[C@H](CCC(N)=O)NC(=O)[C@H](CS)NC(=O)[C@@H]1CCCN1C(=O)[C@H](CCCCN)NC(=O)[C@@H](N)[C@@H](C)O)C(=O)N[C@@H](CC(N)=O)C(=O)NCC(=O)N[C@@H](Cc1ccccc1)C(=O)N[C@@H](CS)C(=O)N[C@@H](CCCCN)C(=O)N[C@@H](CS)C(=O)N[C@H](C(=O)N[C@@H](CCCNC(=N)N)C(=O)O)C(C)C [NCR13_AlaV4] (H-TKPCQSDKDCKKFACRKPKAAACINGFCKCVR-OH; N-terminus and C-terminus assumed)
MIC (μM) Fusarium graminearum (Fusarium graminearum; 48 h): 12 µM (≈ 42.6 µg/mL) | MIC (μM) Botrytis cinerea (Botrytis cinerea): Inactive

CC[C@H](C)[C@H](NC(=O)[C@H](CS)NC(=O)[C@H](CCCCN)NC(=O)[C@@H]1CCCN1C(=O)[C@@H](NC(=O)[C@H](CCCCN)NC(=O)[C@@H]1CCCN1C(=O)[C@H](CCCCN)NC(=O)[C@H](CCCNC(=N)N)NC(=O)[C@H](CS)NC(=O)[C@H](C)NC(=O)[C@H](Cc1ccccc1)NC(=O)[C@H](CCCCN)NC(=O)[C@H](CCCCN)NC(=O)[C@H](CS)NC(=O)[C@H](CC(=O)O)NC(=O)[C@H](CCCCN)NC(=O)[C@H](CC(=O)O)NC(=O)[C@H](CO)NC(=O)[C@H](CCC(N)=O)NC(=O)[C@H](CS)NC(=O)[C@@H]1CCCN1C(=O)[C@H](CCCCN)NC(=O)[C@@H](N)[C@@H](C)O)C(C)C)C(=O)N[C@@H](CC(N)=O)C(=O)NCC(=O)N[C@@H](Cc1ccccc1)C(=O)N[C@@H](CS)C(=O)N[C@@H](CCCCN)C(=O)N[C@@H](CS)C(=O)N[C@H](C(=O)N[C@@H](CCCNC(=N)N)C(=O)O)C(C)C [NCR13, reference compound] (H-TKPCQSDKDCKKFACRKPKVPKCINGFCKCVR-OH; N-terminus and C-terminus assumed)
MIC (μM) Fusarium graminearum (Fusarium graminearum; 48 h): 6 µM (≈ 22 µg/mL)

CaNCR13: Wild-type nodule specific cysteine rich peptide from chickpea, SEQ ID NO: 1, expressed in Pichia pastoris and purified by FPLC and HPLC (TKPCQSDKDCKKFACRKPKVPKCINGFCKCVR; listed as Cicer arietinum)
MIC [1]: 0.41 µM | MIC (Candida auris (38883)): 6.4 µM | MIC (Candida albicans (33795)): 3.2 µM | MIC (Candida glabrata (38827)): 0.41 µM | MIC [2]: 3.2 µM

TKPCQSDKDCKKFACAAAAVPKCINGFCKCVR (SEQ ID NO: 43) [NCR13_AlaV3, Alanine scanning variant of NCR13]
MIC (μM) Fusarium graminearum (Fusarium graminearum): Inactive | MIC (μM) Botrytis cinerea (Botrytis cinerea): Inactive

Reference: patent publication US20250176546A1, “ANTIMICROBIAL CaNCR PEPTIDE VARIANTS” (Donald Danforth Plant Science Center, priority 2022, published 2025)
